This note sets out measurements from patent EP0218688B1, “DIHALO-STATINE SUBSTITUTED RENIN INHIBITORS” (THE UPJOHN COMPANY, priority 1985, dated 1986).

The experiment addresses T1, renin (Homo sapiens, UniProt P00797).
T1 construct: Lyophilized human plasma with 0.1% EDTA is obtained from New England Nuclear; tissue New England Nuclear Plasma Renin Activity Control; host or cells: human plasma (lyophilized, reconstituted)
T1 sequence (P00797 67-406): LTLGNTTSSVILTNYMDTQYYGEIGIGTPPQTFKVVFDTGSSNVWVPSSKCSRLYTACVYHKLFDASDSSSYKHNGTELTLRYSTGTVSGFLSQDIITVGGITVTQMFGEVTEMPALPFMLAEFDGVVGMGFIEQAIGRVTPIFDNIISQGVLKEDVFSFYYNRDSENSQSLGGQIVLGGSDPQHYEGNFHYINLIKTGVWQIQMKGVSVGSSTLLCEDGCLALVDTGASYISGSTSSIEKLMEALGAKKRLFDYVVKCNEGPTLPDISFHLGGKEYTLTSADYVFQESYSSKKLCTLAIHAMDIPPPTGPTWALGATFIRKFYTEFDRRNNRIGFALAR
In words: GAMMACOAT plasma renin activity (PRA) radioimmunoassay, inhibition of angiotensin I generation in reconstituted human plasma. Conditions: I50 of RIP compared with I50 of the compound, RIP value of the same assay day. The class given is biochemical. The method, then:
Lyophilized human plasma with 0.1% EDTA is obtained from New England Nuclear, North Billerica, Massachusetts 01862 as "Plasma Renin Activity Control". This lyophilized plasma is reconstituted, on the day of the assay, with cold sterile distilled water according to directions on the vial. The plasma renin activity (PRA) of the reconstituted plasma is assayed with "GAMMACOAT [^125 Plasma Renin Activity Radioimmunoassay Kit" supplied by Clinical Assays, a Division of Travenol Laboratories, Inc., Cambridge, Massachusetts 02139. The procedure used with these kits is carried out essentially as described in the literature which accompanies them. […]
In the case of renin inhibitory peptide (RIP), […] of the 4°C. blank is added to a GAMMACOAT® tube. […] The tubes are then counted in a gamma counter. The results of the RIP are evaluated with the Rodbard Radioimmunoassay Program and the plasma renin activity (PRA) is expressed as […]. […] In addition to l50 values, relative potencies are also calculated. A relative potency is determined by comparing the 150 of RIP to the l50 of the compound. However, it must be emphasized that relative potencies are calculated from the l50 obtained for RIP on the day the compound is assayed and not from the average 15o for RIP.

Molecules are shown by their SMILES.

For the molecule `CC[C@H](C)[C@H](NC(=O)C(F)(F)C(=O)C(CC(C)C)NC(=O)[C@H](Cc1c[nH]cn1)NC(=O)[C@H](Cc1ccccc1)NC(=O)OC(C)(C)C)C(=O)NCc1ccccn1` (stereo partly drawn) [N-tert-Butyloxycarbonyl-L-phenylalanyl-L-histidyl-2,2-difluoro-statonyl-L-isoleucyl-2-pyridylmethylamide], the relative potency turned out to be 6100.
Next, `CC[C@H](C)[C@H](NC(=O)C(F)(F)[C@H](O)[C@H](CC(C)C)NC(=O)[C@H](Cc1c[nH]cn1)NC(=O)[C@H](Cc1ccccc1)NC(=O)OC(C)(C)C)C(=O)NCc1ccccn1` [N-tert-Butyloxycarbonyl-L-phenylalanyl-L-histidyl-2,2-difluoro-statyl-L-isoleucyl-2-pyridylmethylamide]: 1,000.
